Tests used:
[1] = test system: A375 melanoma human tumor xenograft; experiment: In vivo human tumor xenograft model, antitumor activity; design: species or system nude mice; settings: 2.5mpk,qdx5x2,ip
Source text: Specific pathogen-free homozygous female nude mice (nu/nu, Charles River Laboratories) were used. Mice were given food and water ad libitum and housed in microisolator cages. Four to six week old animals were identified by microchips (Locus Technology, Manchester, MD, USA) at the time of the experiments. All animal studies were approved by the Institutional Animal Care and Use Committee at Threshold Pharmaceuticals, Inc.
All cell lines were from the American Type Culture Collection (ATCC, Rockville, MD, USA).
Cells were mixed with Matrigel (30% in H460) and 0.2 ml per mouse were subcutaneously implanted to the flank area of the animals. When tumor size reached 100-150 mm^3, mice were randomized into experimental or vehicle groups with 10 mice/group and treatment was started (Day 1). The tested compounds were formulated in 5% DMSO in D5W. All compounds were given by IP, QDx5/wk (5 days on, 2 days off) as one cycle, for a total of 2 cycles. Tumor growth and body weight were measured twice a week. Tumor volume was calculated as (length x width^2)/2. Drug efficacy was assessed as Tumor Growth Inhibition (TGI) and Tumor Growth Delay (TGD). TGI was defined as (1-ΔT/ΔC) x 100, where ΔT/ΔC presented the ratio of the change in mean (or median, if variation within the group was relatively large) tumor volume of the treated group and of the control group. TGD was calculated as the extra days for the treated tumor to reach 500mm^3 as compared to the control group. Animals were culled when individual tumor size reached over 2000mm^3 or mean tumor volume exceeded 1000mm^3 in the group. Data are expressed as the mean ± SEM. One-way analysis of variance with Dunnett post comparison test (GraphPad Prism 4) or two-tailed student's t-test were used for analysis. A P level < 0.05 was considered statistically significant.
This study employed an A375 melanoma human tumor xenograft model and the compounds provided herein were compared to thiotepa and the approved anti melanoma drug, Abraxane. […] Mpk refers to mg/kg.

[2] = Body weight and toxicity in the orthotopic liver cancer mouse model; type: in vivo, athymic nude mice; settings: mouse, in vivo
[3] = test system: HepG2-GFP human hepatocellular carcinoma; experiment: Orthotopic mouse model of human liver cancer, tumor burden; type: in vivo, athymic nude mice; settings: 30mg/kg, Qdx35, Gavages
Protocol: Female athymic nude mice (6 weeks of age) were used in this study. The animals were purchased from Beijing HFK Bioscience, Co., Ltd and maintained in a High Efficiency Particulate Air Filter (HEPA) filtered environment with cages, food, and bedding sterilized by irradiation or autoclaving. A total of 32 nude mice were used for the study. HepG2-GFP human hepatocellular carcinoma cells (AntiCancer, Inc., San Diego, CA) were incubated with RPMI-1640 (Gibco-BRL, Life Technologies, Inc.), which contained 10% FBS. Cells were grown in a CO2 Water Jacketed Incubator (Forma Scientific) maintaining 37°C and a 5% CO2/95% air atmosphere. Cell viability was determined by trypan blue exclusion analysis. Five female athymic nude mice were injected subcutaneously with a single dose of 5 x 10^6 HepG2-GFP cells. Tumors were harvested when their size reached 1cm^3 and the tumor tissues were then cut into small fragments of 1mm^3. Forty female nude mice were implanted orthotopically with a single piece of tumor fragment, which was derived from a subcutaneous tumor model of HepG2-GFP human hepatocellular carcinoma. The tumor tissue was orthotopically implanted in the right lobe of the liver in each mouse by SOI (Surgical Orthotopic Implantation). Briefly, an upper abdominal incision of 1cm was made under anesthesia. Right lobe of the liver was exposed and a part of the liver surface was injured mechanically by scissors. Then a piece of tumor fragment was fixed within the liver tissue, the liver was returned to the peritoneal cavity and the abdominal wall finally closed. Mice were kept in laminar-flow cabinets under specific pathogen-free-conditions.
Treatment was started three days after tumor implantation when the implanted tumors reached an average size of around 1 mm^2. The 32 tumor-bearing mice were randomly divided into four experimental groups of 8 mice each. Each cage was clearly marked for its group with four mice per cage. […] Table. Groups and treatment protocol
During the period of the study, all of the experimental mice were checked daily for mortality or signs of morbidity. […] The body weights of the mice were measured twice weekly during the study period. Images of tumor growth and progression were acquired twice a week during the period of the study with the FluorVivo imaging system, Model 300/Mag (INDEC, CA, USA). […] Livers were exposed for imaging, after which the tumors were removed and weighted with an electronic balance (Sartorius BS 124 S, Germany). Tumor tissues were kept in formalin for further analysis. Comparisons of body weights and tumor burdens in different groups were analyzed using the Student's t-test with an α = 0.05 (two-sided). After intravenously injection of the test agents, the mice had no lying, no autonomous activity reduction. The experimental animals were generally in good condition. Table. Comparison of mean mice body weight at the end of the study
The progressions of orthotopic HepG2-GFP hepatocellular carcinoma in different groups were monitored by real time imaging. Images were acquired twice a week. Typical tumor images at the end of the study in each group and tumor growth curves derived from the signals of tumor fluorescence, which were analyzed using the Power Station software (INDEC Biosystems, CA, USA), are shown in figure 6 and figure 7, respectively Table. Average tumor size in each group (mm2)

S=P(N1CC1)(N1CC1)N1CC1 [Thio-TEPA, thiotepa]
Days to 500 mm^3 [1]: 18 days
Days to 1000 mm^3 [1]: 27 days
TGD500, Days (vs. vehicle) [1]: 3 days
TGD1000, Days (vs. vehicle) [1]: 2 days
TGI [1]: 16.6%

CNC(=O)c1cc(Oc2ccc(NC(=O)Nc3ccc(Cl)c(C(F)(F)F)c3)cc2)ccn1 [Sorafenib, reference compound]
toxicity to the experimental mice [2]: a certain degree of toxicity
Tumor weight (g) (mean ± sd) [3]: 0.0637 ± 0.0389 g
Tumor area (mm^2) (mean ± sd) ([3]; fluorescence imaging): 8.2 ± 5.3 mm^2
tumor inhibition rate IR(%) ([3]; from final average tumor weights): 58.7%
